Data taken from patent US11530219B2, “Ligands to cereblon (CRBN)” (DANA-FARBER CANCER INSTITUTE, INC., priority 2018, dated 2022).
pEC50, pIC50, pKi: −log10 of the molar value.

What was measured:
DDB1ΔB-CRBN = DDB1ΔB-CRBN (Homo sapiens (Human), UniProt Q96SW2); experiment: Atto565-Lenalidomide displacement assay (fluorescence polarization, CRBN binding); settings: for pIC50: 10 nM Atto565-Lenalidomide, 100 nM DDB1ΔB-CRBN, n=2; for pKi: calculated from IC50 with probe Kd of 40 nM, competitive model
Procedure: Various inventive compounds were analyzed for cereblon binding. […] Compound titrations were incubated for 60 min at room temperature. The change in fluorescence polarization was monitored using a PHERAstar® FS microplate reader (BMG Labtech) for 1 h in 120s cycles.

CRBN = CRBN (Homo sapiens (Human), UniProt Q96SW2); experiment: Cellular CRBN dBET6 displacement assay (BRD4BD2-GFP/mCherry reporter cells); assay type: cell-based; settings: Flip-In 293 cells stably expressing BRD4BD2-GFP, 100 nM dBET6, 5 hours; read-out: Cellular CRBN-BRD4 dBET6 displacement EC50
Procedure: BRD4BD2 were subcloned into mammalian pcDNA5/FRT Vector (Ampicillin and Hygromycin B resistant) modified to contain MCS-eGFP-P2A-mCherry. […] Following a 2-3 passage cycle, FACS (FACSAria™ II, BD) was used to enrich for cells expressing eGFP and mCherry.
Signal from minimal 3000 events per well was acquired and the eGFP and mCherry florescence monitored. Data was analyzed using FlowJo® (FlowJo®, LCC). […] The eGFP protein abundance relative to mCherry was then quantified as a ten-fold amplified ratio for each individual cell using the formula: 10×eGFP/mCherry. The median of the ratio was then calculated per set, normalized to the median of the DMSO ratio.
This assay provided a readout of cellular CRBN binding impacted by the permeability of the molecule tested.

DDB1ΔB-CRBN, sequence (Q96SW2 whole entry, stated change not applied): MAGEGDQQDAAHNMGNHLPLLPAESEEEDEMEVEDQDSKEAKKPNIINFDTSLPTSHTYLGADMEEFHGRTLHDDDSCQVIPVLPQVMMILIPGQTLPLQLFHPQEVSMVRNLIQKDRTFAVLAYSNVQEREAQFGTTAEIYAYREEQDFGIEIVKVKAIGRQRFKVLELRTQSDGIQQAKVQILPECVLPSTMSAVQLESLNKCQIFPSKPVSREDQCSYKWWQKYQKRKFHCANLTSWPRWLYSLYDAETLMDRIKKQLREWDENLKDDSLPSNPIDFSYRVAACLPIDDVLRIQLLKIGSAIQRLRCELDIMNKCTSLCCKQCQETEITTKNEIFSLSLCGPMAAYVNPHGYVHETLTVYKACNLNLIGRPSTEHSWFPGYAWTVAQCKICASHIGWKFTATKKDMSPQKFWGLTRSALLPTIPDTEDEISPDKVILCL
CRBN, sequence (Q96SW2 whole entry): as the sequence (Q96SW2 whole entry, stated change not applied) above

For O=C1CCC(N2Cc3c(NC(=O)CNc4ccnc(N5CCC[C@@H]5CO)n4)cccc3C2=O)C(=O)N1 (stereo partly drawn) [Compound 14, N-(2-(2,6-dioxopiperidin-3-yl)-1-oxoisoindolin-4-yl)-2-((2-((R)-2-(hydroxymethyl)pyrrolidin-1-yl)pyrimidin-4-yl)amino)acetamide], the pIC50 (DDB1ΔB-CRBN) was 5.80 and the pKi (DDB1ΔB-CRBN) was 6.36.
O=C1CCC(N2Cc3c(NC(=O)CNc4ccnc(N5CCC[C@H]5CO)n4)cccc3C2=O)C(=O)N1 (stereo partly drawn) [Compound 4, N-(2-(2,6-dioxopiperidin-3-yl)-1-oxoisoindolin-4-yl)-2-((2-((S)-2-(hydroxymethyl)pyrrolidin-1-yl)pyrimidin-4-yl)amino)acetamide] showed a pIC50 (DDB1ΔB-CRBN) of 5.07 and a pKi (DDB1ΔB-CRBN) of 5.62.
With O=C1CCC(N2Cc3c(NC(=O)CNc4ccnc(-c5cc6ccccc6o5)n4)cccc3C2=O)C(=O)N1 (stereo not shown) [Compound 13, 2-((2-(benzofuran-2-yl)pyrimidin-4-yl)amino)-N-(2-(2,6-dioxopiperidin-3-yl)-1-oxoisoindolin-4-yl)acetamide] the pIC50 (DDB1ΔB-CRBN) was 4.54 and the pKi (DDB1ΔB-CRBN) was 5.08.
O=C1CCC(N2Cc3c(NC(=O)CNc4ccnc(Nc5ccc6c(c5)CCC6)n4)cccc3C2=O)C(=O)N1 (stereo not shown) [Compound 2, 2-((2-((2,3-dihydro-1H-inden-5-yl)amino)pyrimidin-4-yl)amino)-N-(2-(2,6-dioxopiperidin-3-yl)-1-oxoisoindolin-4-yl)acetamide] showed a pEC50 (CRBN) of 4.32, a pIC50 (DDB1ΔB-CRBN) of 4.32 and a pKi (DDB1ΔB-CRBN) of 4.87.
Work on CC(=O)c1ccc(-c2nccc(NCC(=O)Nc3cccc4c3CN(C3CCC(=O)NC3=O)C4=O)n2)cc1 (stereo not shown) [Compound 12, 2-((2-(4-acetylphenyl)pyrimidin-4-yl)amino)-N-(2-(2,6-dioxopiperidin-3-yl)-1-oxoisoindolin-4-yl)acetamide] yielded a pIC50 (DDB1ΔB-CRBN) of 4.86 and a pKi (DDB1ΔB-CRBN) of 5.41.
O=C1CCC(N2Cc3c(NC(=O)CNc4ccnc(N5CCN(c6cccc(C(F)(F)F)c6)CC5)n4)cccc3C2=O)C(=O)N1 (stereo not shown) [Compound 16, N-(2-(2,6-dioxopiperidin-3-yl)-1-oxoisoindolin-4-yl)-2-((2-(4-(3-(trifluoromethyl)phenyl)piperazin-1-yl)pyrimidin-4-yl)amino)acetamide] was tested, and the pIC50 (DDB1ΔB-CRBN) was 6.29 and the pKi (DDB1ΔB-CRBN) was 6.89.
COc1cccc(-c2nccc(NCC(=O)Nc3cccc4c3CN(C3CCC(=O)NC3=O)C4=O)n2)c1 (stereo not shown) [Compound 9, N-(2-(2,6-dioxopiperidin-3-yl)-1-oxoisoindolin-4-yl)-2-((2-(3-methoxyphenyl)pyrimidin-4-yl)amino)acetamide] showed a pIC50 (DDB1ΔB-CRBN) of 4.66 and a pKi (DDB1ΔB-CRBN) of 5.20.
Compound O=C1CCC(N2Cc3c(NC(=O)CNc4ccnc(NCCCN5CCCC5=O)n4)cccc3C2=O)C(=O)N1 (stereo not shown) [Compound 6, N-(2-(2,6-dioxopiperidin-3-yl)-1-oxoisoindolin-4-yl)-2-((2-((3-(2-oxopyrrolidin-1-yl)propyl)amino)pyrimidin-4-yl)amino)acetamide] has a pIC50 (DDB1ΔB-CRBN) of 4.64 and a pKi (DDB1ΔB-CRBN) of 5.19.
Compound O=C1CCC(N2Cc3c(NC(=O)CNc4ccnc(NCc5ccc6c(c5)OCO6)n4)cccc3C2=O)C(=O)N1 (stereo not shown) [Compound 3, 2-((2-((benzo[d][1,3]dioxol-5-ylmethyl)amino)pyrimidin-4-yl)amino)-N-(2-(2,6-dioxopiperidin-3-yl)-1-oxoisoindolin-4-yl)acetamide] has a pIC50 (DDB1ΔB-CRBN) of 4.90 and a pKi (DDB1ΔB-CRBN) of 4.87.
O=C1CCC(N2Cc3c(NC(=O)CNc4ccnc(-c5ccc(F)cc5)n4)cccc3C2=O)C(=O)N1 (stereo not shown) [Compound 11, N-(2-(2,6-dioxopiperidin-3-yl)-1-oxoisoindolin-4-yl)-2-((2-(4-fluorophenyl)pyrimidin-4-yl)amino)acetamide] was tested, and the pIC50 (DDB1ΔB-CRBN) was 4.83 and the pKi (DDB1ΔB-CRBN) was 5.38.
Work on O=C1CCC(N2Cc3c(NC(=O)CNc4ccnc(Nc5ccccc5F)n4)cccc3C2=O)C(=O)N1 (stereo not shown) [Compound 1, N-(2-(2,6-dioxopiperidin-3-yl)-1-oxoisoindolin-4-yl)-2-((2-((2-fluorophenyl)amino)pyrimidin-4-yl)amino)acetamide] yielded a pIC50 (DDB1ΔB-CRBN) of 4.53 and a pKi (DDB1ΔB-CRBN) of 5.07.
Work on O=C1CCC(N2Cc3c(NC(=O)CNc4ccnc(Nc5ccc6c(c5)OCO6)n4)cccc3C2=O)C(=O)N1 (stereo not shown) [Compound 5, 2-((2-(benzo[d][1,3]dioxol-5-ylamino)pyrimidin-4-yl)amino)-N-(2-(2,6-dioxopiperidin-3-yl)-1-oxoisoindolin-4-yl)acetamide] yielded a pIC50 (DDB1ΔB-CRBN) of 4.37 and a pKi (DDB1ΔB-CRBN) of 4.91.
In the case of COc1ccc(Nc2nccc(NCC(=O)Nc3cccc4c3CN(C3CCC(=O)NC3=O)C4=O)n2)cc1 (stereo not shown) [Compound 7, N-(2-(2,6-dioxopiperidin-3-yl)-1-oxoisoindolin-4-yl)-2-((2-((4-methoxyphenyl)amino)pyrimidin-4-yl)amino)acetamide], the pIC50 (DDB1ΔB-CRBN) was 4.41 and the pKi (DDB1ΔB-CRBN) was 4.95.
COc1ccc(OC)c(-c2nccc(NCC(=O)Nc3cccc4c3CN(C3CCC(=O)NC3=O)C4=O)n2)c1 (stereo not shown) [Compound 10, 2-((2-(2,5-dimethoxyphenyl)pyrimidin-4-yl)amino)-N-(2-(2,6-dioxopiperidin-3-yl)-1-oxoisoindolin-4-yl)acetamide] showed a pIC50 (DDB1ΔB-CRBN) of 4.72 and a pKi (DDB1ΔB-CRBN) of 5.27.
For COc1ccccc1Nc1nccc(NCC(=O)Nc2cccc3c2CN(C2CCC(=O)NC2=O)C3=O)n1 (stereo not shown) [Compound 15, N-(2-(2,6-dioxopiperidin-3-yl)-1-oxoisoindolin-4-yl)-2-((2-((2-methoxyphenyl)amino)pyrimidin-4-yl)amino)acetamide], the pIC50 (DDB1ΔB-CRBN) was 4.82 and the pKi (DDB1ΔB-CRBN) was 5.37.
For COc1cccc(-c2nccc(Nc3cccc4c3CN(C3CCC(=O)NC3=O)C4=O)n2)c1 (stereo not shown) [Compound 32, 3-(4-((2-(3-methoxyphenyl)pyrimidin-4-yl)amino)-1-oxoisoindolin-2-yl)piperidine-2,6-dione], the pEC50 (CRBN) was 5.38.
CN(c1ccccc1)c1nccc(NCC(=O)Nc2cccc3c2CN(C2CCC(=O)NC2=O)C3=O)n1 (stereo not shown) [Compound 17, N-(2-(2,6-dioxopiperidin-3-yl)-1-oxoisoindolin-4-yl)-2-((2-(methyl(phenyl)amino)pyrimidin-4-yl)amino)acetamide] showed a pIC50 (DDB1ΔB-CRBN) of 5.46 and a pKi (DDB1ΔB-CRBN) of 6.01.
